Data set [1] relates to α4β3γ2 GABAARs. Also on record: method as in PMID 15294445. As to conditions: at 100 μM; cited from earlier work.
The subject of data set [2] is α4β3δ GABAARs. Also on record: method as in PMID 15294445. As to conditions: cited from earlier work.
Data set [3] is described as follows: Steroidomic (GC-MS/MS) analysis of hippocampal tissue after PA-G administration.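 As to all read-outs here: hippocampal steroids quantified by GC-MS/MS, covering free and conjugated forms after hydrolysis, compared against intact rats and rats injected with CDX vehicle alone, five animals per group.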 As to conditions: for fold increase in the concentration in the rat hippocampus above the basal levels / percentage of total significantly increased (5β) steroids in the rat hippocampus / concentration at 20 min: 20 min after PA-G i.p., 1 mg/kg in CDX; for increase in concentration compared with basal levels: after PA-G i.p.; for increase in concentration compared with basal levels / concentration at 20 min: 1 mg/kg; for concentration at 20 min: male, Wistar, rat, in vivo, ip, Steroid concentration in hippocampal tissue, PA-G-Treated (P).
Protocol: In a separate experiment, samples of the hippocampus were obtained from male albino Wistar rats in 6 experimental groups consisting of P12 and P25 animals that were either intact (I), controls (C, i.p. application of a solution of CDX), or in the experimental group (i.p. application of PA-G in a solution of CDX at a dose of 1 mg/kg). Each group consisted of 5 animals. The animals were sacrificed using ether anaesthesia (Penta, Czech Republic) 30 min after administration of the drug. The hippocampi were quickly removed, weighed, and frozen at −80 °C in sterile plastic microvials until analysis.
An amount of 17–100 mg of the hippocampal tissue was minced and then administered into screw-cap tubes. Next, 2 mL of methanol with a mixture of internal standards was added, and the samples were incubated for 1 week in a refrigerator at 4 °C with agitation for 2 min once a day. Afterwards, the extract was transferred into new screw-cap tubes and dried in a vacuum centrifuge at 45 °C. After that, 1 mL of water of chromatographic purity was added, and the samples were further treated as described in our recently published paper [76].
Briefly, the unconjugated steroids were extracted from a testing sample with diethyl-ether, the extract was dried, and the lipids were separated by partitioning between a mixture of methanol with water (4:1, v/v) and pentane. The pentane phase was discarded, and the polar phase was dried and used for further analysis of the unconjugated steroids. Steroid conjugates remaining in the polar residue after diethyl ether were hydrolyzed to their parent hydroxy steroids (unconjugated molecules) and analyzed.

The conditions of data set [4]: within 0.5 min of uptake; cited from earlier work.
In data set [5] the test system is pentylenetetrazol-induced seizures. The data set can be described thus: Pentylenetetrazol (PTZ)-induced seizures in 12- and 25-day-old rats. Type of data set: in vivo, male Wistar albino rats. How it is done: Solutions of PA-G and PA-S were administered intraperitoneally at a concentration of 1 mg/mL, and doses of 1, 5, 10, and 20 mg/kg were used. The solutions of zuranolone were administered intraperitoneally at a concentration of 1 mg/mL, and doses of 0.5, 1, 5, and 10 mg/kg were used. Controls were injected with CDX solution in a volume corresponding to the highest dose (i.e., 20 mL/kg). The same control group was used for PA-S and PA-G. Pentylenetetrazol (PTZ, Sigma Aldrich, Gillingham, Dorset, UK) was dissolved in water in a concentration of 50 mg/mL and was administered subcutaneously at a dose of 100 mg/kg 20 min after the administration of PA-G or PA-S. Each age and dose group comprised 8 animals. The rats were placed individually into plexiglass boxes and were then observed for 30 min after PTZ injection. The incidence, severity, and latencies of seizures were assessed. Younger animals were placed on a pad heated to 34 °C, i.e., to the temperature in the nest for the whole duration of the experiment because of immature thermoregulation. Generalized tonic-clonic or clonic seizures with a loss of righting reflexes were present after a dose of 100 mg/kg of PTZ in all control animals in both age groups. […] The severity of seizures was quantified using a five-point scale as follows: 0—no changes; 0.5—abnormal behaviour (e.g., automatisms, increased orienting reaction); 1—isolated myoclonic jerks; 2—atypical or prolonged minimal seizures; 3—clonic seizures (mS) involving head and forelimb muscles with preserved righting reflexes (older-term minimal pentetrazol seizures); 4—generalized seizures without the tonic phase (GCS); 5—complete generalized tonic-clonic seizures (GTCS).

For data set [6], the system named is GABAARs. Also on record: method as in PMID 29886074. To be noted: isolated pyramidal neurons of the rat hippocampus, cited from earlier work.
Data set [7] concerns NMDARs. To be noted: NMDA-induced currents, transfected HEK293 cells; cited from earlier work.
The subject of data set [8] is GABAARs. To be noted: allosteric displacement of [35S]-TBPS from the picrotoxin binding site on GABAARs; cited from earlier work.
Data set [9] has as its system postpartum depression. On the set-up: method as in PMID 34190962. As to conditions: women with postpartum depression, Phase 3 clinical trial; cited from earlier work.
Where [10] appears, read: P12 rats, i.p. doses of 5 and 10 mg/kg.

Structures can show the parent of a compound that is named as a salt. A value given as a limit tells only on which side of the number the result lay.

The EC50 is the concentration giving half of the maximal effect. By IC50 is commonly meant the concentration at which inhibition is half-maximal.

Take `CC(=O)[C@@]1(O)CCC2C3CC[C@@H]4C[C@H](O)CC[C@]4(C)C3CC[C@@]21C` (stereo partly drawn) [17-OH-PA, 17-hydroxy-pregnanolone]: the greatest response in [1] is reported as 20%. In addition, in data set [2], the maximum efficacy is given as 57%. The EC50 in [2] (read-out: EC50 (potentiation of responses)) was 3.5 µM. Further, in data set [3] (20 min after PA-G administration), the “proportion of the brain's 5β-steroids in the tissue” value is recorded as “about three-quarters”. Also, the results for the “fold increase in the concentration in the rat hippocampus above the basal levels” value in data set [3] (P12) and in data set [3] (P25) were 562 x and 35.8 x, respectively. Further, the “percentage of total significantly increased (5β) steroids in the rat hippocampus” value in data set [3] (P12) turned out to be 73.7%; in data set [3] (P25), 75.9%. Further, the “increase in concentration compared with basal levels” value in data set [3] (P12 animals) is recorded as “up to 560 fold”; in [3] (P25 animals), 36 fold. In addition, in data set [3] (P12 vs. P25 animals, 20 min after PA-G administration), the “metabolite of PA-G identified in hippocampus” value was “major metabolite”. Also, the concentration at 20 min in data set [3] (12-day-old rats) came to 518 ng/g; in data set [3] (25-day-old rats) it was 40.8 ng/g.
As to `C[C@]12CC[C@H](OS(=O)(=O)O)CC1=CC[C@@H]1[C@@H]2CC[C@]2(C)C(=O)CC[C@@H]12` [Dehydroepiandrosterone sulfate (DHEA-S), 17-oxo-androst-5-en-3β-yl 3-sulfate], the desulfation in data set [4] was above 50%. Also, the concentration at 20 min in data set [3] (12-day-old rats) is 4.86 ng/g; in [3] (25-day-old rats), 1.52 ng/g.
On to `CC(=O)[C@H]1CCC2C3CC[C@@H]4C[C@H](OC(=O)[C@@H](N)CCC(=O)O)CC[C@]4(C)C3CC[C@@]21C` (stereo partly drawn) [PA-G, 20-oxo-5β-pregnan-3α-yl L-glutamyl 1-ester], for which the “latencies of GS” value is recorded as “increase in the latencies of GS” in data set [5] (P12 rats, Kruskal-Wallis over dose groups) and “prolonged” in data set [5] (P25 rats, i.p. 10 mg/kg). Besides, in data set [5] (P12 rats, i.p. 20 mg/kg (highest dose tested)), the “incidence of generalized seizures (GS)” value is reported as “prevented the development of GS in all animals”. The seizure severity result in [5] (P12 rats, i.p. 1, 5, 10, 20 mg/kg, Kruskal-Wallis over dose groups) is “suppressed seizure severity”; in data set [5] (P25 rats, Kruskal-Wallis over dose groups), “affected seizure severity”. The “tonic phase (TP) of GTCS” value in data set [5] (setting [10]) is on record as “completely abolished TP”. Besides, in data set [5] (P25 rats, i.p. 20 mg/kg), the “incidence of GTCS” value is given as “completely suppressed these seizures”. In [5] (P25 rats, i.p. 20 mg/kg), the “seizure severity (score)” value is recorded as “decreased score”. In addition, the “maximum potentiation of IGABA peak amplitude” value in data set [6] was “up to 422%”. Also, the EC50 in data set [6] (read-out: EC50 (increase of IGABA peak)) is 7 µM. Besides, the IC50 in [7] was 73 µM. Also, the entries for the “fold increase in the concentration in the rat hippocampus above the basal levels” value in data set [3] (P12) and in [3] (P25) were 199 x and 9.76 x, respectively. Further, the figures for the “percentage of total significantly increased (5β) steroids in the rat hippocampus” value in data set [3] (P12) and in data set [3] (P25) were 6.04% and 10.8%, respectively.
As to `C[C@@]1(O)CC[C@H]2[C@H](CC[C@@H]3[C@@H]2CC[C@]2(C)[C@@H](C(=O)Cn4cc(C#N)cn4)CC[C@@H]32)C1` [zuranolone], the “development of GS” value is reported as “abolished” in [5] (setting [10]) and “completely suppressed development of GS” in data set [5] (P25 rats, all tested doses (0.5, 1, 5, 10 mg/kg i.p.)). Besides, the seizure severity result was “significant decrease in seizure severity” in data set [5] (setting [10]) and “significantly decreased seizure severity” in data set [5] (P25 rats, i.p. dose of only 1 mg/kg). Besides, in data set [5] (P25 rats), the “latencies of mS” value was “increase in the latencies of mS”. Besides, the “development of mS” value in data set [5] (P25 rats, i.p. doses of 5 and 10 mg/kg) is “suppressed the development of mS”. The IC50 in [8] was 7 nM. In data set [9], the symptoms of depression result is given as “improved the symptoms of depression”.

The record behind these values is paper PMC8780580, “The Neuroactive Steroid Pregnanolone Glutamate: Anticonvulsant Effect, Metabolites and Its Effect on Neurosteroid Levels in Developing Rat Brains” (Pharmaceuticals, 2021).
